# Measurements published in patent US20240415804A1, “METHOD OF TREATING PANCREATIC CANCER” (University of South Florida, priority 2022, published 2024).
# Tested on: SHIP-1
# Experiment: SHIP-1 gene and protein expression in tumors of HPC mice
# Assay type: in vivo, mouse
# Conditions: API 25 mg/kg IP 3 times per week for 3-4 weeks, vs vehicle
# Procedure: Earlier studies have shown the anti-tumor activity of API in pre-clinical experimental models of cancer^41, 62-68. The inventors have reported that API increased survival and reduced tumor growth in a heterotopic (H) mouse model of PC (HPC)^55. To investigate if API targets miR-155 and regulates SHIP-1 in the TME of an HPC mouse model, HPC mice were treated with API at a dose of 25 mg/kg (IP) 3 times per week for 3-4 weeks.
# All female C57BL/6 mice (6-8 weeks of age) described in this study were purchased from Envigo (Indianapolis, IN, USA) and were acclimatize for one week in a pathogen-free animal facility (University of South Florida (USF) vivarium) before injections with PC cells. To generate heterotopic pancreatic cancer (HPC) models, mice were subcutaneously injected with 1.5×10^5 murine Panc02 (HPC mice) or 5×10^6 murine UN-KC-6141 cells (KC-HPC mice), in sterile 1× phosphate buffer saline (PBS), in the lower ventral abdomen, while control (CTRL) mice received sterile 1×PBS. […]
# Isolation of total RNA from digested pancreatic tumors and BM cells was performed using a RNeasy Mini Kit (Qiagen), according to the manufacturer's instructions. RT-PCR of quantified and normalized total RNA was performed using a High-Capacity cDNA RT Kit with an RNase Inhibitor (Applied Biosystems), according to the manufacturer's instructions. […]
structure (smiles),measurement,value
"O=c1cc(-c2ccc(O)cc2)oc2cc(O)cc(O)c12 [API, 40,5,7-Trihydroxyflavone, 5,7-Dihydroxy-2-(4-hydroxyphenyl)-4-benzopyrone]",SHIP-1 gene expression in tumor,increased
same,SHIP-1 protein expression in tumor,increased
